Measurements taken from patent US10913757B2, “Hydroxycinnamic derivatives, methods and uses thereof” (UNIVERSIDADE DO PORTO, priority 2016, dated 2021).

How the values were obtained:
[1] = Lipophilic properties by electrochemistry at ITIES (transfer potential); format: physicochemical; details: aqueous phase to 1,6-dichlorohexane, DPV, C=0.32 mM
Procedure: In an embodiment, AntiOxCINs lipophilic properties were evaluated at physiological pH by electrochemistry. The used technique is often used to mimic the transfer of ionic drugs through biological membranes as the process occurs at the interface between two immiscible electrolyte solutions (ITIES). The transfer potential (Etr) at which the ionic drug, initially present in the aqueous phase (C=0.32 mM), is transferred to the 1,6-dichlorohexane (DCH) phase is measured by differential pulse voltammetry (DPV). In the ITIES model, the transfer potential (Etr) becomes less positive with the increasing of the drug lipophilic character.
In an embodiment, the electrochemical analytical data was obtained using a computer controlled potentiostat Autolab PGSTAT302N (Metrohm Autolab, Utrecht, Netherlands). Generally, cyclic voltammetry (CV) data was acquired at a scan rate of 50 mVs^−1. Differential pulse voltammetry (DPV) results were acquired at a step potential of 4 mV, pulse amplitude of 50 mV and scan rate of 8 mVs^−1. The electrochemical signals were monitored by the General Purpose Electrochemical System (GPES) version 4.9, software package. All electrochemical experiments were performed at room temperature in an electrochemical cell that was placed in a Faraday cage in order to minimize the contribution of background noise to the analytical signal.
In an embodiment, the process of evaluation of AntiOxCINs redox properties was conducted as follows: stock solutions of each compound (10 mM) were prepared by dissolving the appropriate amount in ethanol. The voltammetric working solutions were prepared in the electrochemical cell, at a final concentration of 0.1 mM. The […] supporting electrolyte was prepared by diluting […] to 100 mL. Voltammetric data was acquired in a three-electrode system consisting of a glassy carbon electrode (GCE, d=2 mm) as working electrode, a counter electrode of platinum wire and a saturated Ag/AgCl reference electrode. In an embodiment, the evaluation of AntiOxCINs lipophilic properties was performed as follows: the electrochemical cell was a four-electrode system with arrays of micro liquid-liquid interfaces (μlTIES) containing two Ag/AgCl reference electrodes and two counter electrodes of Pt, one in each phase. The microporous membrane was sealed with a fluorosilicone sealant (Dow Corning 730) onto a glass cylinder which was filled with 4.0 mL of the aqueous phase, where the aliquots of AntiOxCINs solutions were added. The membrane was then immersed into the organic phase contained in the cell. The organic phase reference solution (a 2 mM BTPPACI+2 mM NaCl aqueous solution) was mechanically stabilized The aqueous supporting electrolyte solution was a Tris-HCl buffer 10 mM pH 7.0.

[2] = system: rat liver mitochondria (RLM); experiment: Mitochondrial transmembrane electric potential (ΔΨ) of RLM, safranine fluorescence; format: biochemical
Procedure: In an embodiment, and as an example, AntiOxCINs and MitoQ toxicity effects on the mitochondrial bioenergetics, namely on RLM ΔΨ and mitochondrial respiration parameters, were measured. The […] represents the main component of the electrochemical gradient generated by mitochondrial respiration and accounts for more than 90% of the total available energy. For mitochondrial respiration assays, glutamate/malate (for complex I) and succinate (for complex II) were used as substrates. In addition, the mitochondrial oxidative phosphorylation coupling index, known as respiratory control ratio (RCR, state 3/state 4 respiration) and ADP/O index (the coupling between ATP synthesis and oxygen consumption) were also calculated. AntiOxCINs and MitoQ were tested at antioxidant-relevant concentrations, with 10 μM being the highest concentration.
In an embodiment, the evaluation of AntiOxCINs functional mitochondrial toxicity profile was performed in rat liver mitochondria (RLM). […] The protein concentration was determined by the biuret assay using BSA as a standard.
Then, 1 μM FCCP was added at the end of all experiments to depolarize mitochondria. ΔΨ was calculated using a calibration curve obtained when RLM were incubated in a K^+-free reaction medium containing 200 mM sucrose, 1 mM NaH2PO4, 10 mM Tris (pH 7.4) and 10 μM EGTA, supplemented with 0.4 μg valinomicin. […] “Repolarization” corresponded to the recovery of membrane potential after the complete phosphorylation of ADP added. Lag phase reflected the time required to phosphorylate the added ADP. […] Data are means±SEM of five independent experiments.

[3] = GO radical scavenging activity (TAC assay); format: biochemical; details: ethanol, absorbance 428 nm
Description: In an embodiment, the AntiOxCINs antioxidant ranking activity hierarchy was established by in vitro non-cell methods. The selected total antioxidant capacity (TAC) assays (DPPH, ABTS and GO) involved the spectrophotometric measurement of the radical absorbance decrease as a result of an in situ radical deactivation by an antioxidant. Compounds with higher antioxidant activity display lower IC50 values. […] This decrease was attenuated/ameliorated by the increment of the spacer length and/or the introduction of additional hydroxyl group in the aromatic ring.
The radical scavenging activity of AntiOxCINs was evaluated by means of total antioxidant capacity assays based on DPPH., ABTS.^+ and GO. radicals. All these methods involved the spectrophotometric measurement of the absorbance decrease resulting from radical (DPPH., ABTS.^+ or GO.) deactivation with an antioxidant. The results were expressed in IC50, which is defined as the minimum antioxidant concentration necessary to reduce the amount of radical by 50%. Antioxidant assays were performed in a multiplate reader (Powerwave XS Microplate Reader) of Bio-Tech instruments.
In an embodiment, the GO′ scavenging activity was evaluated as follows: solutions of test compounds with concentrations from 5 μM to 75 μM were prepared in ethanol. An ethanolic solution of 5 mM GO′ was prepared and diluted to reach the absorbance of 1.00±0.02 at 428 nm. The addition (20 μL) in triplicate of compound solution to GO. solution (180 μL) was followed by absorbance measurement at 428 nm over 30 minutes, in the dark, at room temperature. […] Dose-response curves were established for the determination of IC50 values. Data are means±SEM of three independent experiments.

## CS(=O)(=O)[O-].O=C(/C=C/c1ccc(O)c(O)c1)NCCCCCCCC[P+](c1ccccc1)(c1ccccc1)c1ccccc1 [AntiOxCIN3, (E)-(8-(3-(3,4-dihydroxyphenyl)acrylamido)octyl)triphenylphosphoniummethanesulfonate]
[1]
  Etr (transfer potential): 0.345 V
[2]; 2.5 μM
  initial slight hyperpolarization: 10 mV
[2]; glutamate/malate, 2.5 μM
  ADP-induced depolarization (ΔΨ in - mV): 199.4 ± 7.4 mV
  Lag Phase: 65.8 ± 6.6 s
  Maximum potential (ΔΨ in - mV): 238.0 ± 9.8 mV
  Repolarization Potential (ΔΨ in - mV): 234.8 ± 10.3 mV
[2]; glutamate/malate, 5 μM
  ADP-induced depolarization (ΔΨ in - mV): 200.7 ± 5.5 mV
  Lag Phase: 68.2 ± 9.6 s
  Maximum potential (ΔΨ in - mV): 238.9 ± 8.6 mV
  Repolarization Potential (ΔΨ in - mV): 235.0 ± 8.4 mV
[2]; glutamate/malate, 10 μM
  ADP-induced depolarization (ΔΨ in - mV): 302.5 ± 6.3 mV
  Lag Phase: 73.8 ± 12.1 s
  Maximum potential (ΔΨ in - mV): 238.0 ± 6.7 mV
  Repolarization Potential (ΔΨ in - mV): 231.5 ± 7.2 mV
[2]; succinate, 2.5 μM
  ADP-induced depolarization (ΔΨ in - mV): 171.5 ± 7.3 mV
  Lag Phase: 84.6 ± 16.7 s
  Maximum potential (ΔΨ in - mV): 191.2 ± 9.1 mV
  Repolarization Potential (ΔΨ in - mV): 186.7 ± 9.3 mV
[2]; succinate, 5 μM
  ADP-induced depolarization (ΔΨ in - mV): 174.5 ± 7.7 mV
  Lag Phase: 92.0 ± 10.3 s
  Maximum potential (ΔΨ in - mV): 193.3 ± 7.6 mV
  Repolarization Potential (ΔΨ in - mV): 190.4 ± 8.3 mV
[2]; succinate, 10 μM
  ADP-induced depolarization (ΔΨ in - mV): 172.2 ± 7.5 mV
  Lag Phase: 79.8 ± 17.6 s
  Maximum potential (ΔΨ in - mV): 189.7 ± 7.8 mV
  Repolarization Potential (ΔΨ in - mV): 184.2 ± 7.6 mV
[3]
  IC50: 2800 nM

## CS(=O)(=O)[O-].O=C(/C=C/c1cc(O)c(O)c(O)c1)NCCCCCCCC[P+](c1ccccc1)(c1ccccc1)c1ccccc1 [AntiOxCIN5, (E)-(8-(3-(3,4,5-trihydroxyphenyl)acrylamido)octyl)triphenylphosphonium methanesulfonate]
[1]
  Etr (transfer potential): 0.423 V
[2]; 2.5 μM
  initial slight hyperpolarization: 25 mV
[2]; glutamate/malate, 2.5 μM
  ADP-induced depolarization (ΔΨ in - mV): 207.5 ± 6.1 mV
  Lag Phase: 74.4 ± 10.7 s
  Maximum potential (ΔΨ in - mV): 249.8 ± 5.4 mV
  Repolarization Potential (ΔΨ in - mV): 244.7 ± 5.9 mV
[2]; glutamate/malate, 5 μM
  ADP-induced depolarization (ΔΨ in - mV): 207.5 ± 5.6 mV
  Lag Phase: 69.8 ± 13.3 s
  Maximum potential (ΔΨ in - mV): 244.7 ± 7.0 mV
  Repolarization Potential (ΔΨ in - mV): 236.5 ± 6.8 mV
[2]; glutamate/malate, 10 μM
  ADP-induced depolarization (ΔΨ in - mV): 184.6 ± 18.7 mV
  Lag Phase: 53.2 ± 7.6 s
  Maximum potential (ΔΨ in - mV): 215.1 ± 22.3 mV
  Repolarization Potential (ΔΨ in - mV): 199.9 ± 26.0 mV
[2]; succinate, 2.5 μM
  ADP-induced depolarization (ΔΨ in - mV): 177.2 ± 7.7 mV
  Lag Phase: 80.2 ± 11.8 s
  Maximum potential (ΔΨ in - mV): 196.2 ± 8.6 mV
  Repolarization Potential (ΔΨ in - mV): 190.6 ± 7.8 mV
[2]; succinate, 5 μM
  ADP-induced depolarization (ΔΨ in - mV): 173.6 ± 6.8 mV
  Lag Phase: 67.2 ± 13.4 s
  Maximum potential (ΔΨ in - mV): 190.1 ± 6.8 mV
  Repolarization Potential (ΔΨ in - mV): 184.0 ± 7.1 mV
[2]; succinate, 10 μM
  ADP-induced depolarization (ΔΨ in - mV): 162.2 ± 7.7 mV
  Lag Phase: 58.4 ± 10.2 s
  Maximum potential (ΔΨ in - mV): 180.8 ± 4.0 mV
  Repolarization Potential (ΔΨ in - mV): 168.4 ± 9.3 mV
[3]
  IC50: 2300 nM
